Test results reported in article PMC12368479, “Inhibition of the Clathrin Terminal Domain—Amphiphysin Protein–Protein Interaction. Probing the Pitstop 2 Aromatic Moiety” (Chemmedchem, 2025).
Read-outs that look alike come from different tables or passages of the source.

Columns and labels:
[1] = target: T1, full length human Dynamin I (Homo sapiens, UniProt Q05193); test: Dynamin GTPase activity, Malachite Green phosphate detection assay; format: biochemical
T1 construct: full length human Dynamin I expressed in Sf21 insect cells; made in house; host or cells: Sf21 insect cells
T1 sequence (Q05193 1-864): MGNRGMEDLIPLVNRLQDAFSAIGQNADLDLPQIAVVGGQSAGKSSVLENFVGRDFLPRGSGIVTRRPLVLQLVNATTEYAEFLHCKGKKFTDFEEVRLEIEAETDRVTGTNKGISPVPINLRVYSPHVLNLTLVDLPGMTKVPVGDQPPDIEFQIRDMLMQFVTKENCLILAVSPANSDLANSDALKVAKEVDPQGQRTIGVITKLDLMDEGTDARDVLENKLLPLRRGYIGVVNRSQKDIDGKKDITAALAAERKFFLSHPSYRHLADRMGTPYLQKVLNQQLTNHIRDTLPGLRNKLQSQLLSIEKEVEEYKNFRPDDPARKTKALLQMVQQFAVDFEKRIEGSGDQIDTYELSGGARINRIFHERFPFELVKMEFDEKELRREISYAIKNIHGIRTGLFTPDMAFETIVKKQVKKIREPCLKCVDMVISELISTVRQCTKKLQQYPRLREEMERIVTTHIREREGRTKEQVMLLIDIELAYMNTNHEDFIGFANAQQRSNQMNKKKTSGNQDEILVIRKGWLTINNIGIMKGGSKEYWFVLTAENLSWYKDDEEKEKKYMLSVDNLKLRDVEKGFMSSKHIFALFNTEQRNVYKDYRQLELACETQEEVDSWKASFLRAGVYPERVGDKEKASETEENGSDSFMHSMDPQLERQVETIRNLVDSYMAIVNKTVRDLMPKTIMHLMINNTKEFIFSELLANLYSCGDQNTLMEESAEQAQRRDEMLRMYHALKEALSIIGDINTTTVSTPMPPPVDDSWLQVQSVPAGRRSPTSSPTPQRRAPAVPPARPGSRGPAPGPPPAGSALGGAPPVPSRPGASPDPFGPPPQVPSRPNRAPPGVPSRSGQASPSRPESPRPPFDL
Method: Dynamin GTPase activity was determined in vitro using the Malachite Green phosphate detection absorbance‐based assay within a 96‐well plate format as described previously. The enzyme source was full length human Dynamin I expressed in Sf21 insect cells and affinity‐purified on GST‐Amph2‐SH3 (rat Amphiphysin 2 (494–588)).^[ [56] ^]

[2] = target: T2, clathrin heavy chain NTD (amino acids 1–364) – amphiphysin 1 B/C domain protein–protein interaction (NTD‐PPI) (Homo sapiens, UniProt Q00610); test: ELISA-based clathrin inhibitor binding assay (NTD-PPI); settings: ELISA; for IC50: read-out: NTD‐PPI IC50
T2 construct: GST‐tagged clathrin heavy chain NTD (amino acids 1–364); made in house
T2 sequence (Q00610 1-364): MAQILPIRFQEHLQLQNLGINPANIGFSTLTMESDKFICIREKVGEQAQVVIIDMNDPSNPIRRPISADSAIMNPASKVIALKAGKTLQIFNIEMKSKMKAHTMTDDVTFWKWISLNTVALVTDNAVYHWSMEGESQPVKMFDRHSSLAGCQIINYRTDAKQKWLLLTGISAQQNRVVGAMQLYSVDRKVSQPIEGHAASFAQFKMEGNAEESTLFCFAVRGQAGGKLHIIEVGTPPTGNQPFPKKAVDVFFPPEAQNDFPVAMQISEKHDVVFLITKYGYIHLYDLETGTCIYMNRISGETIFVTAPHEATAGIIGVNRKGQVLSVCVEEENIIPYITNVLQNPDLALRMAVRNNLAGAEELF
Method: The clathrin inhibitor assay was based inhibition of protein–protein interaction (PPI) between clathrin and amphiphysin as described in our previous report.^[ [45], [54] ^] Bacterially expressed recombinant purified His6‐tagged amphiphysin 1 B/C domain (which comprises both the clathrin and the AP‐2 binding sites, amino acids 250‐578^[ [55] ^]) in screening buffer (20 mM HEPES, pH 7.4, 50 mM NaCl, 1 mM DTT, 1 mM PMSF) was added to a 384 well ELISA plate (Corning Maxisorp 3700) and bound to the plastic for 1 h at room temperature. […] Following extensive washes (with 20 mM HEPES, pH 7.4, 50 mM NaCl, 0.05% Tween 20), chemical compounds diluted in DMSO (10 μL) were added and incubated together with bacterially expressed recombinant GST‐tagged clathrin heavy chain NTD (amino acids 1–364) for 1 h at room temperature in screening buffer. After 3 washes, horseradish peroxidase‐coupled anti‐GST antibodies were added in screening buffer and the plate incubated for 40 min at room temperature. Following additional washes, 50 μL TMB (3,3′,5,5′‐tetramethylbenzidine) (Pierce Biotechnology) chromogenic substrate of horseradish peroxidase was added, and the plate was incubated for 10 min before the reaction was terminated by adding 50 μL 1N sulfuric acid to produce a yellow colour. The amount of bound protein was determined by spectrophotometric measurement in a plate reader. Relative binding was calculated as a percentage of DMSO control.

[3] = Table 1, library 1, n = 1 unless noted (19: n = 2), '–' = not active at 150 μM, read-out: Dyn 1 IC50
[4] = Table 1, library 1, average of duplicate measurements (n=2)
[5] = values quoted in running text (section 2.2), read-out: Dynamin IC50
[6] = Table 2, library 2, n = 3, triplicate, '–' = not active at 100 μM, read-out: Dyn 1 IC50
[7] = Table 2, library 2, average of duplicate measurements (n=2)
[8] = Table 3, library 3, average of duplicate measurements (n = 2)

Q: Which results are given for `O=C1N=C(NS(=O)(=O)c2cccc3ccccc23)S/C1=C\c1ccccc1O` [compound 8, (Z)‐N‐(5‐(2‐hydroxybenzylidene)‐4‐oxo‐4,5‐dihydrothiazol‐2‐yl)naphthalene‐1‐sulfonamide]?
A: IC50 [1, 3]: > 150 µM; IC50 [2, 4]: 2.1 µM

Q: `N#Cc1ccc(/C=C2\SC(NS(=O)(=O)c3cccc4ccccc34)=NC2=O)cc1` [compound 11, (Z)‐N‐(5‐(4‐cyanobenzylidene)‐4‐oxo‐4,5‐dihydrothiazol‐2‐yl)naphthalene‐1‐sulfonamide] was tested. Which IC50 [1, 3] did it give?
A: > 150 µM

Q: Which results are given for `N#Cc1cccc(/C=C2\SC(NS(=O)(=O)c3cccc4ccccc34)=NC2=O)c1` [compound 12, (Z)‐N‐(5‐(3‐cyanobenzylidene)‐4‐oxo‐4,5‐dihydrothiazol‐2‐yl)naphthalene‐1‐sulfonamide]?
A: IC50 [1, 3]: > 150 µM; IC50 [2, 4]: 5.7 µM

Q: Which IC50 [1, 3] does the source give for `O=C1N=C(NS(=O)(=O)c2cccc3ccccc23)SC1=Cc1ccccc1-c1ccccc1` [compound 16, N‐(5‐([1,1'‐biphenyl]‐2‐ylmethylene)‐4‐oxo‐4,5‐dihydrothiazol‐2‐yl)naphthalene‐1‐sulfonamide] here?
A: > 150 µM

Q: `O=C1N=C(NS(=O)(=O)c2cccc3ccccc23)SC1=Cc1cccc(-c2ccccc2)c1` [compound 17, N‐(5‐([1,1'‐biphenyl]‐3‐ylmethylene)‐4‐oxo‐4,5‐dihydrothiazol‐2‐yl)naphthalene‐1‐sulfonamide] was tested. Which IC50 [1, 3] did it give?
A: > 150 µM

Q: And the IC50 [2, 4]?
A: 4.02 µM

Q: What does the source list for `CC(=O)Nc1ccc(/C=C2\SC(NS(=O)(=O)c3cccc4ccccc34)=NC2=O)cc1` [compound 19, (Z)‐N‐(4‐((2‐(naphthalene‐1‐sulfonamido)‐4‐oxothiazol‐5(4H)‐ylidene)methyl)phenyl)acetamide]?
A: IC50 [1, 3]: 93 ± 2.5 µM; IC50 [1, 5]: 92.7 µM; IC50 [2, 4]: 3.5 µM

Q: For `CC(C)(C)c1ccc(/C=C2\SC(NS(=O)(=O)c3cccc4ccccc34)=NC2=O)cc1` [compound 20, (Z)‐N‐(5‐(4‐(tert‐butyl)benzylidene)‐4‐oxo‐4,5‐dihydrothiazol‐2‐yl)naphthalene‐1‐sulfonamide], which IC50 [1, 3] is on record?
A: > 150 µM

Q: How did the IC50 [1, 3] turn out when `CC(C)c1ccc(/C=C2\SC(NS(=O)(=O)c3cccc4ccccc34)=NC2=O)cc1` [compound 21, (Z)‐N‐(5‐(4‐isopropylbenzylidene)‐4‐oxo‐4,5‐dihydrothiazol‐2‐yl)naphthalene‐1‐sulfonamide] was run?
A: > 150 µM

Q: What about the IC50 [2, 4] of the same molecule?
A: 4.1 µM

Q: With `CCCc1ccc(/C=C2\SC(NS(=O)(=O)c3cccc4ccccc34)=NC2=O)cc1` [compound 22, (Z)‐N‐(4‐oxo‐5‐(4‐propylbenzylidene)‐4,5‐dihydrothiazol‐2‐yl)naphthalene‐1‐sulfonamide] as the molecule, how does the IC50 [1, 3] read?
A: ~91 µM

Q: What about the IC50 [1, 5] of the same molecule?
A: 91 µM

Q: `CCCCc1ccc(/C=C2\SC(NS(=O)(=O)c3cccc4ccccc34)=NC2=O)cc1` [compound 23, (Z)‐N‐(5‐(4‐butylbenzylidene)‐4‐oxo‐4,5‐dihydrothiazol‐2‐yl)naphthalene‐1‐sulfonamide] was tested. Which IC50 [1, 3] did it give?
A: ~103 µM

Q: And the IC50 [1, 5]?
A: 103 µM

Q: `O=C1N=C(NS(=O)(=O)c2cccc3ccccc23)S/C1=C\c1cccc(O)c1O` [compound 24, (Z)‐N‐(5‐(2,3‐dihydroxybenzylidene)‐4‐oxo‐4,5‐dihydrothiazol‐2‐yl)naphthalene‐1‐sulfonamide] was tested. Which IC50 [1, 6] did it give?
A: 85 µM

Q: And the “fold less active (NTD‐PPI) than 25 and 27” value ([2]; relative to 2,4‐dihydroxyphenyl 25 and 3,4‐dihydroxyphenyl 27)?
A: 3 fold

Q: And the IC50 [2, 7]?
A: 3.9 µM

Q: `O=C1N=C(NS(=O)(=O)c2cccc3ccccc23)S/C1=C\c1ccc(O)cc1O` [compound 25, (Z)‐N‐(5‐(2,4‐dihydroxybenzylidene)‐4‐oxo‐4,5‐dihydrothiazol‐2‐yl)naphthalene‐1‐sulfonamide] was tested. Which IC50 [1, 6] did it give?
A: 61.2 ± 7.5 µM

Q: `O=C1N=C(NS(=O)(=O)c2cccc3ccccc23)S/C1=C\c1cc(O)ccc1O` [compound 26, (Z)‐N‐(5‐(2,5‐dihydroxybenzylidene)‐4‐oxo‐4,5‐dihydrothiazol‐2‐yl)naphthalene‐1‐sulfonamide] was tested. Which IC50 [1, 6] did it give?
A: 70 ± 5.3 µM

Q: With `O=C1N=C(NS(=O)(=O)c2cccc3ccccc23)S/C1=C\c1ccc(O)c(O)c1` [compound 27, (Z)‐N‐(5‐(3,4‐dihydroxybenzylidene)‐4‐oxo‐4,5‐dihydrothiazol‐2‐yl)naphthalene‐1‐sulfonamide] as the molecule, how does the IC50 [1, 6] read?
A: 50.4 ± 8.4 µM

Q: How did the IC50 [1, 6] turn out when `O=C1N=C(NS(=O)(=O)c2cccc3ccccc23)S/C1=C\c1ccc(O)c(O)c1O` [compound 28, (Z)‐N‐(4‐oxo‐5‐(2,3,4‐trihydroxybenzylidene)‐4,5‐dihydrothiazol‐2‐yl)naphthalene‐1‐sulfonamide] was run?
A: 34.3 ± 3.4 µM

Q: Which IC50 [1, 6] does the source give for `COc1cccc(/C=C2\SC(NS(=O)(=O)c3cccc4ccccc34)=NC2=O)c1OC` [compound 29, (Z)‐N‐(5‐(2,3‐dimethoxybenzylidene)‐4‐oxo‐4,5‐dihydrothiazol‐2‐yl)naphthalene‐1‐sulfonamide] here?
A: > 100 µM

Q: Which results are given for `COc1ccc(/C=C2\SC(NS(=O)(=O)c3cccc4ccccc34)=NC2=O)c(OC)c1` [compound 30, (Z)‐N‐(5‐(2,4‐dimethoxybenzylidene)‐4‐oxo‐4,5‐dihydrothiazol‐2‐yl)naphthalene‐1‐sulfonamide]?
A: IC50 [1, 6]: > 100 µM; IC50 [2, 7]: 1 µM

Q: `COc1ccc(/C=C2\SC(NS(=O)(=O)c3cccc4ccccc34)=NC2=O)cc1OC` [compound 31, (Z)‐N‐(5‐(3,4‐dimethoxybenzylidene)‐4‐oxo‐4,5‐dihydrothiazol‐2‐yl)naphthalene‐1‐sulfonamide] was tested. Which IC50 [1, 6] did it give?
A: 91 µM

Q: And the IC50 [2, 7]?
A: 2.2 µM

Q: With `COc1cc(/C=C2\SC(NS(=O)(=O)c3cccc4ccccc34)=NC2=O)cc(OC)c1` [compound 32, (Z)‐N‐(5‐(3,5‐dimethoxybenzylidene)‐4‐oxo‐4,5‐dihydrothiazol‐2‐yl)naphthalene‐1‐sulfonamide] as the molecule, how does the IC50 [1, 6] read?
A: > 100 µM

Q: How did the IC50 [1, 6] turn out when `O=C1N=C(NS(=O)(=O)c2cccc3ccccc23)S/C1=C\c1ccc(F)c(F)c1` [compound 38, (Z)‐N‐(5‐(3,4‐difluorobenzylidene)‐4‐oxo‐4,5‐dihydrothiazol‐2‐yl)naphthalene‐1‐sulfonamide] was run?
A: > 100 µM

Q: With `O=C1N=C(NS(=O)(=O)c2cccc3ccccc23)S/C1=C\C1CC=CCC1` (centres unmarked) [compound 39, (Z)‐N‐(5‐(cyclohex‐3‐en‐1‐ylmethylene)‐4‐oxo‐4,5‐dihydrothiazol‐2‐yl)naphthalene‐1‐sulfonamide] as the molecule, how does the IC50 [2, 8] read?
A: 4.3 µM

Q: With `O=C1N=C(NS(=O)(=O)c2cccc3ccccc23)S/C1=C\C1CCCCC1` [compound 40, (Z)‐N‐(5‐(cyclohexylmethylene)‐4‐oxo‐4,5‐dihydrothiazol‐2‐yl)naphthalene‐1‐sulfonamide] as the molecule, how does the IC50 ([1]; Table 3, library 3, n = 1 unless otherwise stated (41, 42: n = 2), '–' = not active at 100 μM, read-out: Dynamin 1 IC50) read?
A: > 100 µM

Q: `CCCCCCC/C=C1\SC(NS(=O)(=O)c2cccc3ccccc23)=NC1=O` [compound 43, (Z)‐N‐(5‐octylidene‐4‐oxo‐4,5‐dihydrothiazol‐2‐yl)naphthalene‐1‐sulfonamide] was tested. Which IC50 [2, 8] did it give?
A: 5.9 µM
